Data taken from patent US20250179094A1, “TGF-B INHIBITOR COMPOUND AND USE THEREOF” (Medinno Pharmaceutical Technology (Zhuhai) Co., Ltd., priority 2022, published 2025).

What follows are compounds tested against human TGFβR1 (Homo sapiens (Human), UniProt P36897) (assay: TGFβR1 kinase activity assay (ADP-Glo method)). Conditions: ATP 5 uM, TGFβR1tide substrate, 60 minutes at room temperature.
Assay type: biochemical
Protocol: The principle of the activity assay was that TGFβR1 phosphorylates the substrate TGFβR1tide, consuming ATP in the process. […] The specific experimental steps were as follows. Compounds were diluted 4-fold in DMSO in a dilution plate, with the final starting concentration of the compounds being 10 μM, across 10 concentration gradient points. The compounds were then further diluted 50-fold into the kinase reaction buffer and incubated on a shaker for 20 minutes. Kinase was formulated with an enzyme reaction buffer. 2 μl kinase was added to each well of the reaction plate. 1 μl of the compound diluted in buffer was added to each well, and then the plate was sealed with a sealing membrane and centrifuged at 1000 g for 30 seconds, leaving it at room temperature for 10 minutes. Solutions of TGFβR1tide and ATP were prepared with the kinase reaction buffer, and 2 μL of the TGFβR1tide/ATP solution was added to the reaction plate. The plate was sealed with a sealing film and centrifuged at 1000 g for 30 seconds. It was allowed to react at room temperature for 60 minutes. Subsequently, 4 μL of ADP-Glo was transferred to a 384-well reaction plate and centrifuged at 1000 rpm/min for 1 minute, followed by incubation at 25° C. for 40 minutes. Then, 8 μL of Detection solution was transferred to the 384-well reaction plate and centrifuged at 1000 rpm/min for 1 minute, after which it was incubated at 25° C. for 40 minutes. The RLU (Relative Luminescence Unit) signal was read using a BMG microplate reader, which was used to characterize the degree of kinase activity.
3.1 The inhibition rate was calculated as follows: inhibition rate of compound (% inh)=100%−(compound−positive control)/(negative control−positive control)*100%.
The IC50 (half inhibition concentration) of a compound was obtained using the following non-linear fitting equation, wherein data analysis was performed using Graphpad 7.0 software.
X: log value of compound concentration; and Y: inhibition rate (% inhibition)

human TGFβR1, sequence (P36897 34-503): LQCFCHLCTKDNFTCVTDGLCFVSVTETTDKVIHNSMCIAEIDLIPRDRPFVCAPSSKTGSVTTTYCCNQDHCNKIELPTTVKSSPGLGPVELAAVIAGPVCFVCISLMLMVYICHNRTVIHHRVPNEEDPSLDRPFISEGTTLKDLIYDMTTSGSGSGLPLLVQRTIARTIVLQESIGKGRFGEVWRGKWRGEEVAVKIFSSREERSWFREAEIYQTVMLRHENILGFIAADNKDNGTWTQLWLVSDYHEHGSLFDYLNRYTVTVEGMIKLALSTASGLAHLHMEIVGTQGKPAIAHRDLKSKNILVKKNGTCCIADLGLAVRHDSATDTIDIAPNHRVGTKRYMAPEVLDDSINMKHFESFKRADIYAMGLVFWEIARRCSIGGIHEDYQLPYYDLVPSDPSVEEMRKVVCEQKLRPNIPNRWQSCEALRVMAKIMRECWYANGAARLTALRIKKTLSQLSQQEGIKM

IC50 [nM] | Compound
2.1 | CCS(=O)(=O)N1Cc2nc(-c3cc(-c4cn(C)nc4-c4cccc(C)n4)ccn3)[nH]c2C1 [Compound 52, 5-(Ethylsulfonyl)-2-[4-(1-methyl-3-(6-methylpyridin-2-yl)-1H-pyrazol-4-yl)pyridin-2-yl]-1,4,5,6-tetrahydropyrrolo[3,4-d]imidazole]
0.18 | Cc1cccc(-c2nc3n(c2-c2ccnc(-c4nc5c([nH]4)CN(C(=O)N(C)C)C5)c2)CCC3)n1 [Compound 29, N,N-Dimethyl-2-(4-(2-(6-methylpyridin-2-yl)-6,7-dihydro-5H-pyrrolo[1,2-a]imidazol-3-yl)pyridin-2-yl)-4,6-dihydropyrrolo[3,4-d]imidazol-5(1H)-carboxamide]
11.9 | Cc1cccc(-c2nc3n(c2-c2ccnc(-c4nc5c([nH]4)CN(C4CCN(C)CC4)C5)c2)CCC3)n1 [Compound 13, 5-(1-Methylpiperidin-4-yl)-2-(4-(2-(6-methylpyridin-2-yl)-6,7-dihydro-5H-pyrrolo[1,2-a]imidazol-3-yl)pyridin-2-yl)-1,4,5,6-tetrahydropyrrolo[3,4-d]imidazole]
5.6 | Cc1cccc(-c2nn(Cc3ccccc3F)cc2-c2ccnc(-c3nc4c([nH]3)CN(S(C)(=O)=O)C4)c2)n1 [Compound 51, 2-[4-(1-(2-Fluorobenzyl)-3-(6-methylpyridin-2-yl)-1H-pyrazol-4-yl)pyridin-2-yl]-5-(methylsulfonyl)-1,4,5,6-tetrahydropyrrolo[3,4-d]imidazole]
2.2 | Cc1cccc(-c2nn(Cc3ccc(F)cc3)cc2-c2ccnc(-c3nc4c([nH]3)CN(S(C)(=O)=O)C4)c2)n1 [Compound 50, 2-[4-(1-(4-Fluorobenzyl)-3-(6-methylpyridin-2-yl)-1H-pyrazol-4-yl)pyridin-2-yl]-5-(methylsulfonyl)-1,4,5,6-tetrahydropyrrolo[3,4-d]imidazole]
3.4 | Cc1cccc(-c2nn(CC3CC3)cc2-c2ccnc(-c3nc4c([nH]3)CN(S(C)(=O)=O)C4)c2)n1 [Compound 47, 2-[4-(1-(Cyclopropylmethyl)-3-(6-methylpyridin-2-yl)-1H-pyrazol-4-yl)pyridin-2-yl]-5-(methylsulfonyl)-1,4,5,6-tetrahydropyrrolo[3,4-d]imidazole]
7.3 | Cc1cccc(-c2nc3n(c2-c2ccnc(-c4nc5c([nH]4)CN(C(=O)CC#N)C5)c2)CCC3)n1 [Compound 64, 3-(2-(4-(2-(6-Methylpyridin-2-yl)-6,7-dihydro-5H-pyrrolo[1,2-a]imidazol-3-yl)pyridin-2-yl)-4,6-dihydropyrrolo[3,4-d]imidazol-5(1H)-yl)-3-oxopropanenitrile]
2.5 | Cc1cccc(-c2nn(Cc3ccccn3)cc2-c2ccnc(-c3nc4c([nH]3)CN(S(C)(=O)=O)C4)c2)n1 [Compound 53, 2-[4-(3-(6-Methylpyridin-2-yl)-1-(pyridin-2-ylmethyl)-1H-pyrazol-4-yl)pyridin-2-yl]-5-(methylsulfonyl)-1,4,5,6-tetrahydropyrrolo[3,4-d]imidazole]
3 | Cc1cccc(-c2nn(CC3CC(O)C3)cc2-c2ccnc(-c3nc4c([nH]3)CN(S(C)(=O)=O)C4)c2)n1 (stereo not shown) [Compound 49, 3-((3-(6-Methylpyridin-2-yl)-4-(2-(5-(methylsulfonyl)-1,4,5,6-tetrahydropyrrolo[3,4-d]imidazol-2-yl)pyridin-4-yl)-1H-pyrazol-1-yl)methyl)cyclobutanol]
11.6 | Cc1cccc(-c2nc3n(c2-c2ccnc(-c4nc5c([nH]4)CN(C(=O)c4cnn(C)c4)C5)c2)CCC3)n1 [Compound 11, (1-Methyl-1H-pyrazol-4-yl)(2-(4-(2-(6-methylpyridin-2-yl)-6,7-dihydro-5H-pyrrolo[1,2-a]imidazol-3-yl)pyridin-2-yl)-4,6-dihydropyrrolo[3,4-d]imidazol-5(1H)-yl)ketone]
